According to patent US20160270400A1, “Liposome-Attractant Formulations” (priority 2013, published 2016):
Where “and” joins values, the source holds several entries; their conditions need not be identical. Identical values can stand only once.

How the values were obtained:
[1] = tested on: free living nematodes in soil; details: 24 hour exposure; cited from earlier work
citrus nematode = details: 0.5 hour exposure, same concentration; cited from earlier work
Root-Knot larvae (J2) = assay: Effect of nematicides (Oxamyl, Thiodicarb) on Root-Knot larvae (J2) in vitro; design: species or system M. incognita; details: for Root-Knot larvae (J2) Alive / Root-Knot larvae (J2) Dead: room temperature, one replicate per line; for Root-Knot larvae (J2) Alive / Root-Knot larvae (J2) Dead / Root-Knot larvae (J2) Alive, non-mobile: 2 days; for Root-Knot larvae (J2) Alive, non-mobile: alive larvae given as non-mobile
Protocol: M. incognita eggs collected from tomato cultures by NaOC1 extraction (Hussey and Barker, 1973). Briefly, six to twelve week old infected tomato roots were cut into 1-2 segment. Root segments were shacked vigorously in 200 ml of a 0.5% Na O Cl solution for 4 min. Then, the Na O Cl solution was passed quickly through a 200-mesh (75-μm), nested over a 500-mesh sieve to collect freed eggs. The a 500-mesh sieve with eggs was quickly placed under a stream of cold water to remove residual Na O cl and rinsed several times. About 50 ml queous suspension of eggs was collected and number of eggs per unit volume will be counted. The egg suspension was allowed to sit at room temperature for 4 days. The hatching juveniles were collected and used in the subsequent experiments.
Determine the efficient concentration of nematicides (Oxamyl and Thidiocarb) that kill or suppress Root-Knot Larvae.
M. incognita eggs collected from tomato cultures by NaOC1 extraction (Hussey & Barker, Plant Disease Reporter. 57:1025-1028 (1973)). Egg suspension was incubated at room temperature until larvae were hatched (4-5 days). The juveniles (J2) were counted and evaluated for activity/mobility for the duration of the study. Four different concentrations of both nematicides (Oxamyl and Thiodicarb) were used to assess their efficacy in killing the nematodes. These were untreated control, 200 ug, 1 mg, 2 mg, and 10 mg. Three replicates of the each concentration were mixed with J2 suspensions and incubated at room temperature for 2 days.
We studied the efficiency of Oxamyl; 200 ug/ml and 100 ug/ml in suppression of J2. […] We used 100 ug of Oxamyl in subsequent studies with liposomes.

root-knot nematodes = assay: Nematicidal activity of Oxamyl-liposome formulation on root-knot nematodes; type: in vivo, M. incognita; details: where oxamyl was added (oxamyl-liposome test, FIG. 1)
Protocol: Liposomes having an aqueous core and phospholipid bilayers were prepared using the thin-film dehydration-rehydration method obtaining, multilamilar vesicles (MLVs) and small unilamellar vesicles (SUVs) (Bangham et al., J. Mol. Biol. 13:238-252 (1965); Gosangari & Watkin, Pharm Dev Technol. 17:383-8 (2012)). Using thin-film hydration method, briefly, required amounts of lipids [1,2-Dipalmitoyl-sn-glycero-3-phosphocholine (DPPC) liposomes and 1, 2-distearoyl-snglycero- 3-phosphocholine (DSPC)] were dissolved in chloroform, and a thin film will be formed on the inner side of the round bottom flask, by evaporating the solvent under vacuum using a rotavapor. The lipid film formed was stored overnight in vacuum desiccator to eliminate traces of chloroform. The film was then hydrated at 58° C., above the Tc of DSPC, using 10 mL of phosphate-buffered saline (PBS, 20 mM […], 150 mM NaCl, pH 7.0) containing different concentration of Oxamyl. […] The unencapsulated oxamyl was then separated using Sephadex G-50 macrospin columns and the encapsulation efficiency was calculated spectrophotometrically at 280 nm. […]
M. incognita eggs collected from tomato cultures by NaOC1 extraction (Hussey & Barker, Plant Disease Reporter. 57:1025-1028 (1973)). […] The juveniles (J2) were counted and evaluated for activity/mobility for the duration of the study. […]

[2] = Abamectin or liposomal abamectin applied to soil prior to planting: gall formation, root necrosis, root length; type: in vivo
Protocol: Abamectin at 5μg or 1μg was directly applied to soil prior to planting. Alternatively abamectin was loaded into liposomes at either 5μg or 1 μg and applied to soil prior to planting. Gall formation was detected. […] Therefore, liposomal abamectin formulations enhance root length as compared to non-liposomal abamectin formulations.

nematode = details: comparison figure; cited from earlier work

BrCCBr [EDB, ethylene dibromide]
population killed [1]: 75% | survival (citrus nematode): did not survive

CS/C(C)=N\OC(=O)N(C)SN(C)C(=O)O/N=C(\C)SC [Larvin (Thiodicarb), Thiodicarb]
Root-Knot larvae (J2) Alive (Root-Knot larvae (J2); 200 ug): 76 and 86 and 89 | Root-Knot larvae (J2) Dead (Root-Knot larvae (J2); 200 ug): 23 and 14 and 11 | Root-Knot larvae (J2) Alive (Root-Knot larvae (J2); 1 mg): 75 and 82 and 63 | Root-Knot larvae (J2) Dead (Root-Knot larvae (J2); 1 mg): 25 and 18 and 37 | Root-Knot larvae (J2) Alive (Root-Knot larvae (J2); 2 mg): 70 and 85 and 65 | Root-Knot larvae (J2) Dead (Root-Knot larvae (J2); 2 mg): 30 and 15 and 35 | Root-Knot larvae (J2) Alive, non-mobile (Root-Knot larvae (J2); 10 mg): 70 non-mobile and 80 non-mobile | Root-Knot larvae (J2) Dead (Root-Knot larvae (J2); 10 mg): 30 (2×) and 20 | concentration required to kill Root-Knot (J2) (Root-Knot larvae (J2); compared with Oxamyl, reason for elimination): required higher concentration to kill Root-Knot (J2)

CNC(=O)O/N=C(\SC)C(=O)N(C)C [Oxamyl (Vydate), Methyl N′N′-dimethyl-N-[(methylcarbamoyl)oxy]-1-thiooxamimidate]
Root-Knot larvae (J2) Alive, non-mobile (Root-Knot larvae (J2); 200 ug): 60 non-mobile and 58 non-mobile and 50 non-mobile | Root-Knot larvae (J2) Dead (Root-Knot larvae (J2); 200 ug): 40 and 42 and 50 | Root-Knot larvae (J2) Alive (Root-Knot larvae (J2); 1 mg): 0 | Root-Knot larvae (J2) Dead (Root-Knot larvae (J2); 1 mg): 100 | Root-Knot larvae (J2) Alive (Root-Knot larvae (J2); 2 mg): 0 | Root-Knot larvae (J2) Dead (Root-Knot larvae (J2); 2 mg): 100 | Root-Knot larvae (J2) Alive (Root-Knot larvae (J2); 10 mg): 0 | Root-Knot larvae (J2) Dead (Root-Knot larvae (J2); 10 mg): 100 | mortality at 100 µg/mL (Root-Knot larvae (J2); Meloidogyne incognita, 100 ug/ml): 100% | mortality at 200 µg/mL (Root-Knot larvae (J2); Meloidogyne incognita, 200 ug/ml): 100% | state of larvae (root-knot nematodes): dead or paralyzed

abamectin [non-liposomal abamectin]
gall formation ([2]; 1 μg applied to soil prior to planting, FIG. 3): most gall formulation | root necrosis ([2]; 5 μg applied to soil prior to planting, FIG. 4): most root necrosis | amount of abamectin needed to treat nematodes when not encapsulated by liposomes (nematode): about 2982 mg/acre
